Source: the NIST ThermoML archive (doi:10.1021/je0499364)

Key:
[1] = Molar enthalpy of transition or fusion; details: Crystal
[2] = molar heat capacity at constant pressure; details: 101.33 kPa
[3] = Crystal

CCCCCCCCCCCCCCCCCCCC(=O)OC [methyl eicosanoate]
Details | Molar enthalpy of transition or fusion [kcal/mol] | Triple point temperature [K]
[1] | 18.83 | –
[3] | – | 319.48

[2]
Details | molar heat capacity at constant pressure [J/K/mol]
5 K, Crystal | 0.75
10 K, Crystal | 5.46
20 K, Crystal | 28.85
30 K, Crystal | 56.97
40 K, Crystal | 89.89
50 K, Crystal | 122.31
60 K, Crystal | 149.98
70 K, Crystal | 176.8
80 K, Crystal | 199.8
90 K, Crystal | 220.14
100 K, Crystal | 235.76
110 K, Crystal | 255.12
120 K, Crystal | 271.01
130 K, Crystal | 285.48
140 K, Crystal | 299.45
150 K, Crystal | 313.11
160 K, Crystal | 326.52
170 K, Crystal | 339.86
180 K, Crystal | 353.31
190 K, Crystal | 366.99
200 K, Crystal | 381.11
210 K, Crystal | 395.71
220 K, Crystal | 411.05
230 K, Crystal | 427.04
240 K, Crystal | 443.77
250 K, Crystal | 461.58
260 K, Crystal | 480.5
270 K, Crystal | 501.55
280 K, Crystal | 525.09
290 K, Crystal | 551.06
300 K, Crystal | 585.33
330 K, Liquid | 714.47
340 K, Liquid | 722.28
350 K, Liquid | 732.2

CCCCCCCCCCCCCC(=O)OC [methyl tetradecanoate]
Details | Molar enthalpy of transition or fusion [kcal/mol] | Triple point temperature [K]
[1] | 12.43 | –
[3] | – | 292.14

[2]
Details | molar heat capacity at constant pressure [J/K/mol]
5 K, Crystal | 0.55
10 K, Crystal | 4.56
20 K, Crystal | 21.34
30 K, Crystal | 43.99
40 K, Crystal | 69.2
50 K, Crystal | 93.62
60 K, Crystal | 113.9
70 K, Crystal | 133.41
80 K, Crystal | 150.35
90 K, Crystal | 165.54
100 K, Crystal | 179.38
110 K, Crystal | 192.06
120 K, Crystal | 203.55
130 K, Crystal | 214.52
140 K, Crystal | 224.93
150 K, Crystal | 235.23
160 K, Crystal | 244.79
170 K, Crystal | 254.91
180 K, Crystal | 265.19
190 K, Crystal | 275.63
200 K, Crystal | 286.07
210 K, Crystal | 296.67
220 K, Crystal | 308.85
230 K, Crystal | 321.05
240 K, Crystal | 334.49
250 K, Crystal | 349.48
260 K, Crystal | 368.64
270 K, Crystal | 388.14
280 K, Crystal | 429.3
300 K, Liquid | 500.03
310 K, Liquid | 504.66
320 K, Liquid | 510
330 K, Liquid | 515.86
340 K, Liquid | 522.03
350 K, Liquid | 528.04

CCCCCCCCC(=O)OC [methyl nonanoate]
Details | Molar enthalpy of transition or fusion [kcal/mol] | Triple point temperature [K]
[1] | 6.53 | –
[3] | – | 238.72

[2]
Details | molar heat capacity at constant pressure [J/K/mol]
5 K, Crystal | 0.39
10 K, Crystal | 2.96
20 K, Crystal | 17.17
30 K, Crystal | 34.66
40 K, Crystal | 53.39
50 K, Crystal | 71.31
60 K, Crystal | 86.46
70 K, Crystal | 100.55
80 K, Crystal | 113.08
90 K, Crystal | 123.98
100 K, Crystal | 134.32
110 K, Crystal | 143.79
120 K, Crystal | 152.28
130 K, Crystal | 160.47
140 K, Crystal | 168.48
150 K, Crystal | 175.96
160 K, Crystal | 183.23
170 K, Crystal | 190.85
180 K, Crystal | 198.49
190 K, Crystal | 206.56
200 K, Crystal | 215.27
210 K, Crystal | 224.62
220 K, Crystal | 236.53
230 K, Crystal | 265.31
240 K, Liquid | 330.8
250 K, Liquid | 330.84
260 K, Liquid | 333.42
270 K, Liquid | 335.9
280 K, Liquid | 338.72
290 K, Liquid | 342.82
300 K, Liquid | 346.27
310 K, Liquid | 350.79
320 K, Liquid | 354.3
330 K, Liquid | 359.1
340 K, Liquid | 363.82
350 K, Liquid | 368.16

CCCCCCCCCCCCCCCC(=O)OC [methyl hexadecanoate]
Details | Molar enthalpy of transition or fusion [kcal/mol]
[1] | 14.35

[2]
Details | molar heat capacity at constant pressure [J/K/mol]
5 K, Crystal | 0.66
10 K, Crystal | 5.56
20 K, Crystal | 23.7
30 K, Crystal | 47.98
40 K, Crystal | 75.87
50 K, Crystal | 104.12
60 K, Crystal | 129.69
70 K, Crystal | 151.19
80 K, Crystal | 167.13
90 K, Crystal | 184.19
100 K, Crystal | 198.32
110 K, Crystal | 213.49
120 K, Crystal | 226.5
130 K, Crystal | 238.62
140 K, Crystal | 250.27
150 K, Crystal | 261.54
160 K, Crystal | 272.73
170 K, Crystal | 284.03
180 K, Crystal | 295.27
190 K, Crystal | 306.8
200 K, Crystal | 318.65
210 K, Crystal | 330.97
220 K, Crystal | 343.93
230 K, Crystal | 357.74
240 K, Crystal | 372.37
250 K, Crystal | 388.24
260 K, Crystal | 405.39
270 K, Crystal | 423.81
280 K, Crystal | 448.6
290 K, Crystal | 482.7
300 K, Crystal | 740.48
310 K, Liquid | 570.55
320 K, Liquid | 576.47
330 K, Liquid | 583.02
340 K, Liquid | 590.14
350 K, Liquid | 597.66

Details | Triple point temperature [K]
[3], Adiabatic calorimetry | 302.71
